Measured values reported in PubChem BioAssay (NCI).
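1) Cells in 96-well plates. 2) Compound, 48 h, 5 concentrations. 3) Linear interpolation between surrounding doses. 4) Unreached endpoint = highest concentration. GI50 marks 50% less growth. TGI: concentration producing complete growth inhibition.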

How the values were obtained:
Experiment in all cases: inhibition of tumour cell growth, NCI panel, 48 h
[1] = system: SF-295 CNS
[2] = system: MDA-MB-231 breast
[3] = system: A498 renal
[4] = system: HCC-2998 colon
[5] = system: UACC-62 melanoma
[6] = system: LOX IMVI melanoma
[7] = system: HCT-15 colon
[8] = system: OVCAR-4 ovarian
[9] = system: SF-268 CNS
[10] = system: NCI/ADR-RES ovarian
[11] = system: TK-10 renal
[12] = system: HOP-62 NSCLC
[13] = system: SN12C renal
[14] = system: BT-549 breast
[15] = system: MCF7 breast

SMILES	TGI [1] [µM]	TGI [2] [µM]	TGI [3] [µM]	TGI [4] [µM]	TGI [5] [µM]	TGI [6] [µM]	TGI [7] [µM]	TGI [8] [µM]	TGI [9] [µM]	TGI [10] [µM]	TGI [11] [µM]	TGI [12] [µM]	TGI [13] [µM]	TGI [14] [µM]	GI50 [1] [µM]	GI50 [15] [µM]	TGI [15] [µM]	GI50 [4] [µM]
CC(C)(C)NC(=S)N/N=C/c1ccccn1	> 100	> 100	> 79.1	> 100	37.3	> 76.7	> 100	> 100	> 100	> 100	> 100	> 79.8	> 96.1	> 100				
COc1cc([C@@H]2c3cc4c(cc3[C@@H](NC(=O)NO)[C@H]3COC(=O)[C@H]23)OCO4)cc(OC)c1O	> 100	> 100	> 100	> 100		> 100	> 100	> 100	> 100	93.1	> 100	> 100	> 100		4.97	7.84	> 100	4.06
COC(=O)/C(=N\N)C(C(=O)C(=O)Nc1nc(=S)[nH][nH]1)c1nc2ccc([N+](=O)[O-])cc2[nH]c1=O (stereo not given)	> 100		> 100	> 100	> 100	> 100	> 100	> 100	> 100		> 100	> 100	> 100					
CCC(=O)CCC1=Nc2nnc(CCCCc3nnc4n3C(=O)C(CCC(=O)CC)=N4)n2C1=O	> 100		> 100	> 100	> 100	> 100	> 100	> 100	> 100		> 100	> 100	> 100					
Cc1ccc2c(c1)CC1(C2)Cc2ccc(C)cc2C1=O (stereo not given)	> 100	62.5	> 100	85		36.4	79.5	> 100	> 100	62.6	> 100	97.8	> 100				89	
COC(=O)C(C#N)C1NC(=O)c2ccccc21 (stereo not given)	> 100		> 100	> 100	> 100	> 100	> 100	> 100	> 100		> 100	> 100	> 100					
O=C(NCc1ccccc1)C1C(=O)C(=O)N(Cc2ccccc2)C1=O (stereo not given)	> 100		> 100	> 100	> 100	> 100	> 100	> 100	> 100		> 100	> 100	> 100					
Nc1ncc2c(n1)-c1ccccc1OC2N1CCOCC1 (stereo not given)	> 100	> 100			> 100	> 100	> 100	> 100	> 100	> 100	> 100	> 100	> 100				> 100	
Cc1ccc(O)c(C(c2cc(C)ccc2O)c2cc([N+](=O)[O-])ccc2O)c1	36.9	22.3	39.5	25.5	36.6	> 100	36.1	28.3	24.6	66.8	34.8	26.3	28.3				33.8	
C/C=C1/C(=Cc2[nH]c(C=c3[nH]/c(=C/C4=NC(=O)C(CC)=C4C)c(C)c3CCC(=O)O)c(CCC(=O)O)c2C)NC(=O)C1C (stereo not given)	18.5			> 50	20.3	2.61	> 50	> 50	> 50		> 50	15.9	> 50					
COC1(OC)C2C=CC1C([C@](C)(N)CO)C2 (stereo not given in full)	> 100	> 100	> 100	> 100	> 100			> 100	> 100		> 100	> 100	> 100	> 100			> 100	
COc1cc2cnc3c4cc(OC)c(OC(C)C)cc4ccc3c2cc1OC	> 100			> 100	> 100	> 100	> 100	> 100	> 100		> 100	> 100	> 100					
CN1C(=O)N(c2nc3ccccc3[nH]2)C(C)(C)C1=O	> 100		> 100		> 100	> 100	> 100	> 100	> 100			> 100	> 100					
C/C(=N/N)c1sc(-c2nc(C)c(/C(C)=N\N)s2)nc1C	> 100		> 100	> 100	> 100	> 75.2	> 60.8	> 100	> 100		> 100	> 100	> 100					
COc1cc2c(cc1OC)[C@H]1C(COC(=O)Nc3ccccc3)CN1CC2 (stereo not given in full)	> 100		> 100	> 100	> 100	> 100	> 100	> 100	> 100		> 100	> 100	> 100					
O=C(O)CCC(NC(=O)c1ccc(CNc2nc3cc(C(F)(F)F)ccc3nc2C(=O)O)cc1)C(=O)O (stereo not given)	> 100		> 100	> 100	> 100	> 100	> 100	> 100	> 100	> 100	> 100	> 100						
CCOC(=O)c1ccn2c(c1)c(C#N)c1nc3ccccc3nc12			> 100	> 100	25.7	> 100	> 100	> 100	> 100		> 100	> 100	> 100					
CC[C@]1(Cc2ccc(OC)c(OC)c2)C=[N+]([O-])O[C@H](OCc2ccccc2)[C@@H]1OC(C)=O	> 100	> 100	> 100	> 100	> 100	39.5	> 100	95.6	70.9	> 100	> 100	> 100					> 100	
